According to patent US6495585B2, “Method for treating hyperproliferative tissue in a mammal” (Health Research, Inc., priority 2001, dated 2002):

Key:
implanted murine tumors = conditions: compared with FAA; cited from earlier work
[1] = test system: cultured human and murine cells; conditions: cited from earlier work
RIF-1 tumors = test system: RIF-1 tumors
Protocol: The drawings illustrate the responses of RIF-1 tumors to either PDT (FIG. 2a) or DMXAA (FIG. 2b). Dose response data are shown in the form of Kaplan-Meier ‘survival’ plots, where the percent of RIF-1 tumors with volumes less than […] are plotted against time from treatment. Tumor volumes at the time of treatment were 50-70 mg (approximately […] of the mouse body mass).
In pilot studies of PDT plus adjuvant DMXAA only low doses of each modality were chosen. […] 23 hours, 20 mg DMXAA/kg. 2 hours, 135 J/cm^263-nm laser light. Control tumors (no drug, no light) are shown as solid black squares; DMXAA are shown as open circles; PDT alone as gray circles.
The symbols in the graph are the same as for FIG. 3.

TNF-α = conditions: cited from earlier work
tumor cell lines = conditions: cited from earlier work
tumor blood flow = conditions: in vivo; cited from earlier work
[2] = test system: natural killer cell activity; conditions: spleen and other tissues; cited from earlier work
Colon 38 tumors = conditions: compared with FAA; cited from earlier work

Cc1ccc2c(=O)c3cccc(CC(=O)O)c3oc2c1C [DMXAA, 5,6-Dimethylxanthenone-4-acetic acid]
dose potency against implanted murine tumors (implanted murine tumors): considerably greater dose potencies than FAA | in vitro activity [1]: active in vitro | tumor control (percent of RIF-1 tumors with volumes less than 400 mm vs time from treatment) (RIF-1 tumors; administered alone, Kaplan-Meier plots, FIG. 2a/2b): control tumors in a dose-dependent manner | toxicity of most effective doses (RIF-1 tumors; mouse, in vivo): most effective doses are at or near the treatment toxic limits | cytokine induction (TNF-α): induce TNF-α along with IFN-γ

O=C(O)Cc1cccc2c(=O)cc(-c3ccccc3)oc12 [FAA, Flavone-8-acetic acid]
in vitro activity against tumor cell lines (tumor cell lines): shows in vitro activity against a number of tumor cell lines | effect on tumor blood flow (tumor blood flow): causes reduction in tumor blood flow | natural killer cell activity [2]: induces natural killer cell activity

O=C(O)Cc1cccc2c(=O)c3ccccc3oc12 [XAA, Xanthenone-4-acetic acid]
efficiency in eliminating Colon 38 tumors (Colon 38 tumors): more efficient than FAA
